Test results as given in BigSolDB 2.1.

Br.Cc1ccc(Sc2ccccc2N2CCNCC2)c(C)c1
solubility (mole fraction)
Settings | 283.15 K | 288.15 K | 293.15 K | 298.15 K | 303.15 K | 308.15 K | 313.15 K | 318.15 K
in 2-butanone | 6.2e-05 | 8.4e-05 | 0.000136 | 0.000163 | 0.00021 | 0.000267 | 0.000311 | 0.000338
in ethanol | 0.00123 | 0.00138 | 0.0015 | 0.00162 | 0.00199 | 0.00269 | 0.00297 | 0.00341
in n-butanol | 0.000582 | 0.000751 | 0.00086 | 0.00121 | 0.0017 | 0.00202 | 0.0023 | 0.00271
in n-propanol | 0.000934 | 0.00101 | 0.00115 | 0.00132 | 0.00178 | 0.00214 | 0.00245 | 0.00295
